Measurements: ChEMBL document CHEMBL1151947, “Synthesis, potency, and in vivo evaluation of 2-piperazin-1-ylquinoline analogues as dual serotonin reuptake inhibitors and serotonin 5-HT1A receptor antagonists” (J Med Chem, 2009)

Columns and labels:
[1] = target: T1, Adrenergic receptor alpha-1 (Rattus norvegicus, UniProt P15823+P23944+P43140); assay: Displacement of [3H]prazosin from alpha1 adrenergic receptor in rat cortical membranes; format: cell membranes, Membrane
T1 sequence (P15823 whole entry): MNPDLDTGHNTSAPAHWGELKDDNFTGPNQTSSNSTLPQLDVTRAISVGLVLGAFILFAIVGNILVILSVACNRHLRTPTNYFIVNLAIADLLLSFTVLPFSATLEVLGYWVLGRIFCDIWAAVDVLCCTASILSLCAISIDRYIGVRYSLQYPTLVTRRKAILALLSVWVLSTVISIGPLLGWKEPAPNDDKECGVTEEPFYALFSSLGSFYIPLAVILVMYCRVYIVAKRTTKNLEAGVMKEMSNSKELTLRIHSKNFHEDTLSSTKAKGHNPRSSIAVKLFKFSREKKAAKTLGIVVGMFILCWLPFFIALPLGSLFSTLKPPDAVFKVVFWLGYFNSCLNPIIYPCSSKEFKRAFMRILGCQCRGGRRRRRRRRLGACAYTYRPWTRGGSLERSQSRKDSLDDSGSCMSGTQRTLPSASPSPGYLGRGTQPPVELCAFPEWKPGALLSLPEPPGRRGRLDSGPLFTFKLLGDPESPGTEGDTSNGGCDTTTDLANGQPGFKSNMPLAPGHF
T1 sequence (P23944 whole entry): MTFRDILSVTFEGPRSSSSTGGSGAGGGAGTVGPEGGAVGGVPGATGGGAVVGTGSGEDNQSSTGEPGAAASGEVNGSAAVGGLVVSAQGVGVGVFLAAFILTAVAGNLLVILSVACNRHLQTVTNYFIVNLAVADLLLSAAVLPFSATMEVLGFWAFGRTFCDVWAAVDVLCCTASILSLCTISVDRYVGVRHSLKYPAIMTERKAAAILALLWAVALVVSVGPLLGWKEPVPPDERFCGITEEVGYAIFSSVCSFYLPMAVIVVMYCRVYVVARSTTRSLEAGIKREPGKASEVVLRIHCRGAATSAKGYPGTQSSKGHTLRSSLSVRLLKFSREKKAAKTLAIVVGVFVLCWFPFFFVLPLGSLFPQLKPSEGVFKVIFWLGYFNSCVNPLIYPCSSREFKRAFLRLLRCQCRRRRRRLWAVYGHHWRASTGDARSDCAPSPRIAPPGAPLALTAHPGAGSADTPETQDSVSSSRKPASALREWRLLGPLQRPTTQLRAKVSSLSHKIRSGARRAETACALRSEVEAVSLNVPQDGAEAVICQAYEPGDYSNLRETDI
T1 sequence (P43140 whole entry): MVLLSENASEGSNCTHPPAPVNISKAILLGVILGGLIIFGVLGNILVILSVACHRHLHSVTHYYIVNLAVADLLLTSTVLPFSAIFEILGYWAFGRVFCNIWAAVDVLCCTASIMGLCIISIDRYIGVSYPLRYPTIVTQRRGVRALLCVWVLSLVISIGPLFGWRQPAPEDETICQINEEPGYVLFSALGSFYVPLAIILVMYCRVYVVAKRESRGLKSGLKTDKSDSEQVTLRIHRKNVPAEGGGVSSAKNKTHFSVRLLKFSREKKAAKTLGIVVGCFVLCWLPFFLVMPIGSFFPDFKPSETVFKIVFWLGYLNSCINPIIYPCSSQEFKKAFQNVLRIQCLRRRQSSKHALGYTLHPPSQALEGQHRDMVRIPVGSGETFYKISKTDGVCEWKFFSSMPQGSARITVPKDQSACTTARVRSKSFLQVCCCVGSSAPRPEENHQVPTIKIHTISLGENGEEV

[2] = target: T2, D(4) dopamine receptor (Homo sapiens, UniProt P21917); assay: Displacement of [3H]spiperone from human dopamine D4 receptor expressed in CHO cells; format: cell-based
T2 sequence (P21917 whole entry): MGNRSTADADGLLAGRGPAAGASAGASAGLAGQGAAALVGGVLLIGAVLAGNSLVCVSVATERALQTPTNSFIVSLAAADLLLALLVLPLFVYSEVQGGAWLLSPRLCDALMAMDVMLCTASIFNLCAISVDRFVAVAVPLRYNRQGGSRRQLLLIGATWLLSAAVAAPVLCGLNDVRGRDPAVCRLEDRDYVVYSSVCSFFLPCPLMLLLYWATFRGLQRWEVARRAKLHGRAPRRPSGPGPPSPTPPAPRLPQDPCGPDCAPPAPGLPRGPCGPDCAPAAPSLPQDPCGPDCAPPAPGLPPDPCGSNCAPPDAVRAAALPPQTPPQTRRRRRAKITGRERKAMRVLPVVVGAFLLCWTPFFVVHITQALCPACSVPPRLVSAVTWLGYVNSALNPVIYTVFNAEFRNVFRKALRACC

[3] = target: Cytochrome P450 2C19 (Homo sapiens, UniProt P33261); assay: Inhibition of CYP2C19 in human liver microsomes; format: ADME, Microsome
[4] = tested on: Rattus norvegicus; assay: Antidepressant activity in po dosed rat assessed as increase in extracellular 5HT level in dorsal lateral frontal cortex after 3 hrs by microdialysis assay; format: functional, organism-based
[5] = Tmax in rat at 10 mg/kg, po; format: ADME, organism-based; set-up: dose 10 mg/kg, route oral; conditions: in vivo

Sequence of Cytochrome P450 2C19 (P33261 whole entry): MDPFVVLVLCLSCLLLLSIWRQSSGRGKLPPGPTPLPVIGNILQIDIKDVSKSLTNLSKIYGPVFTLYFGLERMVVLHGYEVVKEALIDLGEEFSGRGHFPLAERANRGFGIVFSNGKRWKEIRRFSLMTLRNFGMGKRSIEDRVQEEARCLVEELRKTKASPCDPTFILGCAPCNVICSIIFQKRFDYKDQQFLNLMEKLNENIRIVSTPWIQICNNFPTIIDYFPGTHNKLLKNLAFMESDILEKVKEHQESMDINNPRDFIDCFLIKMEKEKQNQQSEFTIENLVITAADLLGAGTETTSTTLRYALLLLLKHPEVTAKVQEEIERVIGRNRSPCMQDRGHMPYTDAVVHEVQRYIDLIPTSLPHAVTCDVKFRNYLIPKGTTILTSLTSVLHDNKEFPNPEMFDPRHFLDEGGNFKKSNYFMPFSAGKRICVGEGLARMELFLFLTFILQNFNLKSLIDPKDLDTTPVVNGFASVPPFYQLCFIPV

Cc1ccc2c3c(ccc2n1)OC[C@H](CN1CCN(c2ccc4cc(C#N)ccc4n2)CC1)O3
Ki [1]: 1110 nM | Ki [2]: 1420 nM | IC50 [3]: 98000 nM | Activity [4]: Dose-dependent effect | Tmax [5]: 1 h
